24 compounds from the Kinase Knowledgebase extract (Sharma et al. 2016) can be followed below.

Several values for one entry are separate records, joined by “and”; a condition that tells them apart may be missing. Identical values can stand only once.

The term IC50 denotes the midpoint of a concentration-inhibition curve.

ROCK2 (human), sequence (O75116 whole entry, looked up): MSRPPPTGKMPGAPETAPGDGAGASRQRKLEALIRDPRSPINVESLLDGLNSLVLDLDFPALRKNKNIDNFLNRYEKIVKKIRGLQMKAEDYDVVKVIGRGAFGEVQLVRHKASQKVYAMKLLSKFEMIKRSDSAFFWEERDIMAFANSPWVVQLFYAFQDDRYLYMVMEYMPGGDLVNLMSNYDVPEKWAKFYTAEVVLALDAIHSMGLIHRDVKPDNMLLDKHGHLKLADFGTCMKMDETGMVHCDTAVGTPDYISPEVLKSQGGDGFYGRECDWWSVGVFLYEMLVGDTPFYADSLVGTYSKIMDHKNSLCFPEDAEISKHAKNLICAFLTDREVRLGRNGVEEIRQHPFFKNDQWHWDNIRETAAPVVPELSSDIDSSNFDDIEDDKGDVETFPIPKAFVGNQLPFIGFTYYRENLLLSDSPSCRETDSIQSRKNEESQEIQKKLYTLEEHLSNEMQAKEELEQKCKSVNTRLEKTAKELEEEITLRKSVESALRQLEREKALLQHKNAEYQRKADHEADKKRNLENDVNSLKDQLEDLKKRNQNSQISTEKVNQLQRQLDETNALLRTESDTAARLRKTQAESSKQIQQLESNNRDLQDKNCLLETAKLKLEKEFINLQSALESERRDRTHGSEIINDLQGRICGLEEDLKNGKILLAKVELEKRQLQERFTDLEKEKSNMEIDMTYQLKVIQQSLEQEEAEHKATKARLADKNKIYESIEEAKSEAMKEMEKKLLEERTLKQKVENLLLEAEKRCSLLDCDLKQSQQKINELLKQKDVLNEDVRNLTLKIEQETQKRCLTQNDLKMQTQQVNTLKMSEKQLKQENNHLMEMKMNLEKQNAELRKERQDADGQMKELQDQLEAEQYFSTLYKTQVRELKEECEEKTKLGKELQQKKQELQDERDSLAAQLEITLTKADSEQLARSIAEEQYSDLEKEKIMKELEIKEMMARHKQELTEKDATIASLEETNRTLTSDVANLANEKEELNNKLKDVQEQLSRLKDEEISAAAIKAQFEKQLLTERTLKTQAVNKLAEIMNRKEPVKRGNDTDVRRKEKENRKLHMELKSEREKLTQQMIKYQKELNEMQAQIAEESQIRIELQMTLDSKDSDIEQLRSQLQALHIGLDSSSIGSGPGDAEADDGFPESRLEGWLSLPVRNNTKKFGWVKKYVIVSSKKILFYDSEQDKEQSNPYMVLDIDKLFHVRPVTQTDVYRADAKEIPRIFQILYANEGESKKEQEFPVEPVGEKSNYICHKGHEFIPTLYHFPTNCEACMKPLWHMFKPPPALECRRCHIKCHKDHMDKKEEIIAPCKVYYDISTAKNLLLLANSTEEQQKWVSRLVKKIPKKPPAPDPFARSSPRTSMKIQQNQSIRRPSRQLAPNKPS

The test has as its target ROCK2 (human) (UniProt O75116). The experiment in a line: Inhibition of ROCK2 Kinase Activity.
In the case of `CCC(N)(CC)C1CCC(Oc2cc3cc[nH]c(=O)c3cc2Cl)CC1` (centres undefined), the IC50 was 0.1 to 1 µM and 0.01 to 0.1 µM.
On to `CC(N)(c1ccc(F)cc1)C1CCC(Oc2cc3cc[nH]c(=O)c3cc2Cl)CC1` (centres undefined), for which the IC50 was 0.01 to 0.1 µM.
As for `N[C@H](c1ccc(F)cc1)C1CCC(Oc2cc3cc[nH]c(=O)c3cc2Cl)CC1` (some centres undefined), the IC50 is 0.1 to 1 µM.
In turn, `CCC(N)C1(c2ccc(F)cc2)CC(Oc2cc3cc[nH]c(=O)c3cc2Cl)C1` (centres undefined) gave an IC50 of 0.1 to 1 µM.
The value for `CC(N)(c1ccccc1)C1CCC(Oc2cc3cc[nH]c(=O)c3cc2Cl)CC1` (centres undefined) was 0.01 to 0.1 µM; that for `COc1ccc(C(C)(N)C2CCC(Oc3cc4cc[nH]c(=O)c4cc3Cl)CC2)cc1` (centres undefined) was 0.01 to 0.1 µM; that for `CC(N)(C1CCCC1)C1CCC(Oc2cc3cc[nH]c(=O)c3cc2Cl)CC1` (centres undefined) was 0.1 to 1 µM.
Regarding `COc1ccc(C(N)[C@H]2CC[C@H](Oc3cc4cc[nH]c(=O)c4cc3Cl)CC2)cc1` (some centres undefined), the IC50 lay within 0.01 to 0.1 µM.
`COc1ccc(C(N)[C@H]2CC[C@@H](Oc3cc4cc[nH]c(=O)c4cc3Cl)CC2)cc1` (some centres undefined) had a half-maximal inhibitory concentration (IC50) not above 0.01 µM.
For `CC[C@@H](N)[C@]1(c2ccccc2)CC[C@H](Oc2cc3cc[nH]c(=O)c3cc2Cl)CC1`, the 50% inhibitory concentration (IC50) is not above 0.01 µM.
Next, `CCC(N)[C@]1(c2cccc(Br)c2)CC[C@H](Oc2cc3cc[nH]c(=O)c3cc2Cl)CC1` (some centres undefined): not above 0.01 µM.
Compound `N[C@@H](c1ccc(F)cc1)C1CCC(Oc2cc3cc[nH]c(=O)c3cc2Cl)CC1` (some centres undefined) had an IC50 not above 0.01 µM.
Compound `N[C@H](c1ccccc1)[C@]1(c2ccccc2)CC[C@@H](Oc2cc3cc[nH]c(=O)c3cc2Cl)CC1` registered an IC50 of 0.01 to 0.1 µM.
The value for `N[C@@H](c1ccccc1)[C@]1(c2ccccc2)CC[C@@H](Oc2cc3cc[nH]c(=O)c3cc2Cl)CC1` was 0.1 to 1 µM.
`CC[C@@H](N)[C@]1(c2ccccc2)CC[C@@H](Oc2cc3cc[nH]c(=O)c3cc2Cl)CC1` had an IC50 of 0.01 to 0.1 µM.
The value for `NC(C1CCC(Oc2cc3cc[nH]c(=O)c3cc2Cl)CC1)C1CC1` (centres undefined) was 0.1 to 1 µM; that for `CCC(N)C1CCC(Oc2cc3cc[nH]c(=O)c3cc2Cl)CC1` (centres undefined) was 0.01 to 0.1 µM.
In the case of `CCCC(C)(N)C1CCC(Oc2cc3cc[nH]c(=O)c3cc2Cl)CC1` (centres undefined), the IC50 was in the range of 0.01 to 0.1 µM.
In the case of `CC(N)(C1CCC(Oc2cc3cc[nH]c(=O)c3cc2Cl)CC1)C1CC1` (centres undefined), the IC50 was 0.1 to 1 µM.
For `CCC(N)[C@]1(c2ccc(C)c(OC)c2)CC[C@H](Oc2cc3cc[nH]c(=O)c3cc2Cl)CC1` (some centres undefined), the IC50 was not above 0.01 µM.
The compound `NC(c1ccc(F)cc1)C1CCC(Oc2cc3cc[nH]c(=O)c3cc2Cl)CC1` (centres undefined) showed an IC50 not above 0.01 µM.
On to `Cc1ccc(C(N)C2CCC(Oc3cc4cc[nH]c(=O)c4cc3Cl)CC2)cc1` (centres undefined), for which the IC50 is ≤ 0.01 µM and 0.01 to 0.1 µM.
In turn, `CC[C@H](N)[C@]1(c2ccccc2)CC[C@H](Oc2cc3cc[nH]c(=O)c3cc2Cl)CC1` showed a half-inhibitory concentration (IC50) not above 0.01 µM.
The compound `CC[C@@H](N)[C@]1(c2ccc(F)cc2)CC[C@H](Oc2cc3cc[nH]c(=O)c3cc2Cl)CC1` displayed a half-inhibitory concentration (IC50) not above 0.01 µM.
